What was measured:
[1] = system: vessel development of the FLK1-GFP transgenic danio rerio; assay: Inhibition test on vascular development of Danio rerio; format: in vivo; conditions: for inhibition at 0.1 µM / inhibition at 1 µM / inhibition at 5 µM / inhibition at 10 µM / inhibition at 20 µM / inhibition at 40 µM / inhibition at 100 µM: Danio rerio, after 24 hours, n = 5, read-out: inhibition rate on the development of vertebral vessel; for inhibition at 0.1 µM: 100 nM; for inhibition effect on the vessel development of the danio rerio (in words): Table 1 and FIG. 7
Protocol: Female fish can spawn 200-300 […], and the fertilization and embryonic development processes are conducted in vitro. They can grow up within 24 hours, and the embryo is transparent, which is suitable for observing the change of intracorporal organs and tissues. These characteristics make the danio rerio become to be one of the five fish laboratory animals accepted by the international organization for standardization. Currently, the danio rerio is widely used in human disease studies, especially used in cardiovascular system studies. The danio rerio can be used for screening the influence of small molecular compounds on angiogenesis. Experimental Method: This experiment uses FLK1-GFP transgenic danio rerio as an animal model which is generally used for screening the influence of compounds on angiogenesis. Vessel can be in vivo observed under fluorescence microscope (Suk-Won Jin, 2005, Development). The selected embryo of the postnatal FLK1-GFP transgenic danio rerio was placed into a culture dish and incubated for 3-5 days in an incubator at 28° C. […] Examine the developmental condition of the vertebral vessel after 24 hours and take photo by use of the fluorescence microscope.

[2] = target: T1, VEGFR2 (Homo sapiens, UniProt P35968); assay: In vitro inhibition test on VEGFR2 in HUVECs (anti-phosphorylated VEGFR2 blot); format: cell-based; conditions: 10 nM, 100 nM and 1 μM, 50 ng/ml VEGF
T1 construct: endogenous in cells; host or cells: primary HUVECs P3-P5
Protocol: The experimental method of detecting the inhibition of the compounds of the present invention on VEGFR2 kinase is as follows:
1) The primary cultured human umbilical vein endothelial cells (HUVECs) P3-P5 were transferred to 6 well plate, 2×10^5 cells per well;
2) compounds 2-1, 2-2 and 2-4 of the present invention (the concentrations are 10 nM, 100 nM and 1 μM for each compound) were added when the cells grow to 70-80%, VEGF was a control, incubation for 30 min;
3) 50 ng/ml VEGF (cell Signaling company, US) was added, stimulating for 10 min;
4) nondenature lysis buffer was added to terminate the reaction, and cell lysis buffer was collected to carry out protein quantification;
5) SDS-PAGE electrophoresis, transfer to nitrocellulose membrane, the membrane was cut off and sealed in phosphate tween buffer, TTBS buffer (Tris-buffered saline 0.01% Tween 20, cell Signaling company, US, PH8.0) formulated from 5% skimmed milk for 2 hours; 6) wash the membrane, seal at 4° C. overnight by use of an anti-phosphorylated VEGFR2 antibody (1:1000 dilution, cell Signaling company, US); 7) on the second day after washing membrane, horse radish peroxidase marked goat anti-rabbit second antibody (cell Signaling company, US) was incubated with the membrane at room temperature for 1 hour; 8) develop with chemiluminescence kit (Millipore company) after washing membrane, and take photos.

T1 sequence (P35968 20-1356): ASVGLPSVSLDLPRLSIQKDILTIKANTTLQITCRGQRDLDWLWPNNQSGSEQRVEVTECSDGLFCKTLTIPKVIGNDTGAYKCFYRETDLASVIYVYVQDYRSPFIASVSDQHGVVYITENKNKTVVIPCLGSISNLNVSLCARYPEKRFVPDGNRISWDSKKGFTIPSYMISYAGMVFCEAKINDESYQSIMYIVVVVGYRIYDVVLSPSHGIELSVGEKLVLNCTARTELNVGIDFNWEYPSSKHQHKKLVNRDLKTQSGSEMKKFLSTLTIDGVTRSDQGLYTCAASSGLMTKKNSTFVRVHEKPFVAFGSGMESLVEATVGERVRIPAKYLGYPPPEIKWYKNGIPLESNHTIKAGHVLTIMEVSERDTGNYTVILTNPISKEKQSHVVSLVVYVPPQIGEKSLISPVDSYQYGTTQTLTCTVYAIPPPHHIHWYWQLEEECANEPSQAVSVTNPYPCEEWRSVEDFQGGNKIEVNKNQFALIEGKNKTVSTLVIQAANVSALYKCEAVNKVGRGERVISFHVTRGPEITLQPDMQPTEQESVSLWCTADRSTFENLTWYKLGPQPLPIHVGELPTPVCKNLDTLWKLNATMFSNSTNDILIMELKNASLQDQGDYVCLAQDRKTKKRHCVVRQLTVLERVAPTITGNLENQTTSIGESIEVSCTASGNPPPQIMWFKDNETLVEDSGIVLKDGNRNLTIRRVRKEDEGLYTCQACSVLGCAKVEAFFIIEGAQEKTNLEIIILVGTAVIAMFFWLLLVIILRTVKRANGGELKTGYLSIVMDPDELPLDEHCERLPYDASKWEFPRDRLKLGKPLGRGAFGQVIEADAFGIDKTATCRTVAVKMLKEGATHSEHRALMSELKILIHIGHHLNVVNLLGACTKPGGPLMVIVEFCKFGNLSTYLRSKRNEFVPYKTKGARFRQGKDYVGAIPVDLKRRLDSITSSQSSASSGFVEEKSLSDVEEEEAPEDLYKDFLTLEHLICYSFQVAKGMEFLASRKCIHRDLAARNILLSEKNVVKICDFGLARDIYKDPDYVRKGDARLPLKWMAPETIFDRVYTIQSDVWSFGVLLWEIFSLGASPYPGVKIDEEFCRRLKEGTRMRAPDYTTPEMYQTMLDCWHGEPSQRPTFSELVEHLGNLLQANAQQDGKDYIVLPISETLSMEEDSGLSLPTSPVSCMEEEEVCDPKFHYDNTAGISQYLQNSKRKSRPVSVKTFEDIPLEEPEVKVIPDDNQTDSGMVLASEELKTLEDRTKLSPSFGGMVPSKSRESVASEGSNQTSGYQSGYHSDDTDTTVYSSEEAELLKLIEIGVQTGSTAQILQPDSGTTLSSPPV

inhibition of VEGFR2 (in words, FIG. 8) [2] | Compound | inhibition at 0.1 µM [1] | inhibition at 1 µM [1] | inhibition at 5 µM [1] | inhibition at 10 µM [1] | inhibition at 20 µM [1] | inhibition at 40 µM [1] | inhibition at 100 µM [1] | inhibition effect on the vessel development of the danio rerio (in words) [1]
– | O=C(Nc1cccc(C(F)(F)F)c1)c1cccc2nc(Oc3ncnc4c3CCNC4)ccc12 [Compound 2-3] | 0% | 0% | 0% | 0% | 0% | 5% | 20% | have inhibition effect on the vessel development of the danio rerio
– | Cc1ccc(Nc2nccc(N(C)c3ccc4c(C)n(C)nc4c3)n2)cc1S(N)(=O)=O [Compound 130B, Pazopanib, reference compound] | 0% | 0% | 85% | 90% | 95% | 95% | 100% | –
can inhibit VEGFR2 | CNCc1cc(Oc2ccc3c(C(=O)Nc4cccc(C(F)(F)F)c4)cccc3n2)ncn1 [Compound 2-4] | 0% | 0% | 0% | 0% | 5% | 25% | 70% | have inhibition effect on the vessel development of the danio rerio
– | O=C(Nc1cccc(C(F)(F)F)c1)c1cccc2nc(Oc3ncnc4c3CNC4)ccc12 [Compound 2-5] | 0% | 0% | 10% | 40% | 80% | 100% | 100% | have inhibition effect on the vessel development of the danio rerio
